The source of these data is patent US20240285555A1, “COMPOSITIONS FOR THE TREATMENT OF COPPER DEFICIENCY AND METHODS OF USE” (priority 2018, published 2024).

One series has as its system ccs1Δ cells. Briefly: Respiratory growth rescue of ccs1Δ yeast. Type of series: cell-based, Saccharomyces cerevisiae. As to conditions: non-fermentable media, 37° C. As for the experimental part: (§1) Yeast Strains and Culture Conditions. The authenticity of yeast strains was confirmed by PCR as well as by replica plating on dropout plates. Yeast cells were cultured in standard YP growth media including YPD (1% yeast extract, 2% peptone and 2% glucose), YPGal (2% galactose), YPGE (3% glycerol+1% ethanol), or synthetic media (SC glucose). For qualitative growth measurement, 10-fold serial dilutions of overnight cultures were spotted on YPD or YPGE plates and incubated at 30° C. and 37° C. for the indicated period. Growth in liquid media was measured spectrophotometrically at 600 nm.
(§2) ES Rescues Many Different Yeast Mutants with Impaired Copper Metabolism. To test the specificity of ES mediated rescue, a number of yeast mutants of genes required for maintaining cellular and mitochondrial copper homeostasis were shortlisted. Genes were prioritized based on their evolutionary conservation, presence of pathogenic mutations in humans, and/or the existence of a related mouse phenotype (Table 3, shown below). […] Most of the yeast mutants were rescued with ES supplementation, albeit to different degrees, reflecting their distinct roles in cellular and mitochondrial copper homeostasis. […]

Series [1] concerns Ctr1^−/− zebrafish embryos. Nature of the series: Pigmentation defect in embryos from Ctr1 heterozygous zebrafish crosses. The series is classed as in vivo. As for the experimental part:
Zebrafish Experiments. […] Morpholino-based experiments were performed.
ES Supplementation Rescues Copper Deficiency Phenotypes in Zebrafish Models. To determine whether ES can rescue phenotypes associated with copper deficiency in an intact developing vertebrate animal model, zebrafish embryos with a null mutation in the gene encoding the plasma membrane copper importer Ctr1 were utilized. Zebrafish were chosen because of the ability to quickly monitor the pigmentation defect that arises due to the copper requirement of tyrosinase, an enzyme that catalyzes the critical step in melanin biosynthesis. Wild type zebrafish embryos have a characteristic melanin pigmentation pattern visible at 48 hpf. […] […] To determine whether ES can rescue the observed CcO assembly defect, clutches of embryos were grown from heterozygous Ctr1 crosses in the presence of ES until 10 dpf and levels of Cox1 in their mitochondrial extracts were measured.

The subject of the next series is coa6Δ cells. Nature of the series: Oxygen consumption rate measurement. Type of series: cell-based, Saccharomyces cerevisiae. As to conditions: 20 nM ES, YP galactose medium.
The subject of a further series is SCO2 patient fibroblasts. Briefly: Steady state COX2 levels in SCO2 patient fibroblasts. The series is classed as cell-based, human. As to conditions: dose and time dependent. As for the experimental part:
Mammalian Cell Culture. The human control MCH46 and SCO2 patient fibroblasts as well as the rat H9c2 control and Ctr1^−/− cardiomyocytes were cultured in high glucose Dulbecco's modified Eagle's medium (DMEM) supplemented with 10% fetal bovine serum (Sigma) and 1 mM sodium pyruvate (Life Technologies). The mouse embryonic fibroblasts were cultured in DMEM 10% FBS, 1 mM sodium pyruvate, 1× minimum essential medium non-essential amino acids (MEM NEAA; Life Technologies 11140), 50 μg/mL uridine, and 1× Pen Strep Glutamine (Life Technologies 10378). All cell lines were cultured under 5% CO2 at 37° C. and were treated with indicated concentrations of ES for 3-6 days before harvesting. Whole cell protein was extracted in lysis buffer (BP-115, Boston BioProducts) supplemented with protease inhibitor cocktail (Roche Diagnostics) and the protein concentrations were determined by BCA assay (Thermo Scientific).
Immunoblotting and In-gel Activities. Sodium dodecyl sulfate polyacrylamide gel electrophoresis (SDS-PAGE) and Blue Native PAGE (BN-PAGE) were performed to separate denatured and native protein complexes, respectively. For SDS-PAGE, mitochondrial lysate ([…]) was separated on NuPAGE 4-12% Bis-Tris gels (Life Technologies, Carlsbad, CA). For BN-PAGE, yeast mitochondria were solubilized in buffer containing 1% digitonin (Life Technologies) by incubating for 15 min at 4° C. […]

Series [2] concerns immortalized control (MCH46) and SCO2 patient fibroblasts, primary human skin fibroblasts (MW28). Nature of the series: Cell viability of human fibroblasts (total cellular ATP, Cell-Titre GLo). Type of series: cell-based. As for the experimental part:
FIGS. 5A and 5B illustrate cell viability of immortalized and primary human fibroblasts cell lines treated with increasing concentrations of elesclomol. […] Cell viability was measured by quantifying total cellular ATP levels by Cell-Titre GLo assay (Promega). Data are expressed as mean±SD (n=3).
ES Supplementation Rescues Levels of CcO Subunits in Mammalian Cell Lines with Genetic Defects in Copper Metabolism. To expand upon the findings in yeast and to test the efficacy of ES in mammalian cell culture models of copper deficiency, a Ctr1 knockout rat H9c2 cardiomyocyte cell line was constructed. […] As expected, the loss of Ctr1 led to a ˜4-fold decrease in the levels of intracellular copper (FIG. 4A) and a concomitant reduction in the levels of the CcO subunitCOX1 and superoxide dismutase, SOD1 (FIG. 4B). This validated Ctr1^−/− cell line was used to test the efficacy of ES in rescuing COX1, a copper-containing subunit of CcO and SOD1, superoxide dismutase, another copper-containing enzyme SOD1. […] Finally, the efficacy of ES in rescuing CcO defects in SCO2 patient fibroblasts that were previously shown to have a COX2 deficiency was tested.

The test system of the next series is BY4741 WT cells. Briefly: Respiratory growth of wild type yeast with copper chelator BCS. The series is classed as cell-based, Saccharomyces cerevisiae. As to conditions: 10 nM ES co-treatment with 20 μM BCS.
For a further series, the system named is yeast atx1Δ. Nature of the series: Respiratory growth rescue of atx1Δ yeast. The series is classed as cell-based, Saccharomyces cerevisiae. The conditions noted are these: non-fermentable media, 37° C. As for the experimental part: as §1, §2

Description for BY4741 WT cells: The cell density was measured spectrophotoretrically at the indicated time points at 600 nm. The data are representative of two independent experiments.
Description for coa6Δ cells: Oxygen Consumption Measurement. For measurements of respiration rates, cells were grown to late log phase in YPGal medium and then washed, counted, and resuspended in fresh YPGal medium at 10^8 cells/ml. The rate of oxygen consumption was then measured at 30° C. using the Oxytherm (Hansatech, Norfolk, UK). Cyanide-sensitive respiration was calculated after the addition of 1 mM KCN, and the cyanide-insensitive respiration was subtracted from the total respiration.

As to `CN(NC(=O)CC(=O)NN(C)C(=S)c1ccccc1)C(=S)c1ccccc1` [ES, elesclomol], in the series with ccs1Δ cells, the “rescue of the respiratory growth defect” value was “rescue”. For the same molecule, the “melanin pigmentation at 48 hpf” value in series [1] (10 nM ES from 3 hpf) is on record as “all of the ES treated embryos from the same crosses were pigmented”. Moreover, the “rescue of the pigmentation defect” value in series [1] (100 nM ES or the equivalent dose of copper) is “rescue of the pigmentation defect”. Moreover, the oxygen consumption rate entry in the series on coa6Δ cells is given as “restored the oxygen consumption rate of coa6Δ cells to that of wild type cells”. Also, in the series on SCO2 patient fibroblasts, the “steady state levels of COX2” value was “partially rescue”. The “toxicity in immortalized cell lines compared to primary cultures” value in series [2] is “much more pronounced toxicity in immortalized cell lines”. Also, the “concentration at which ES toxicity occurs relative to the dose that rescued COX2 levels” value in series [2] (immortalized fibroblasts, 36 hours) amounted to 20 ×. Moreover, the “rescue of BCS-reduced respiratory growth” value with BY4741 WT cells is reported as “rescued”. Besides, in the series on yeast atx1Δ, the “rescue of respiratory growth” value is recorded as “rescue”.
